Data on 10 molecules can be found in ChEMBL document CHEMBL1201862, “PubChem BioAssay data set” (2004).

The target of assay [1] is T1, Corticotropin-releasing factor receptor 2/Corticotropin-releasing factor-binding protein (Homo sapiens, UniProt P24387+Q13324).
T1 sequence (Q13324 whole entry): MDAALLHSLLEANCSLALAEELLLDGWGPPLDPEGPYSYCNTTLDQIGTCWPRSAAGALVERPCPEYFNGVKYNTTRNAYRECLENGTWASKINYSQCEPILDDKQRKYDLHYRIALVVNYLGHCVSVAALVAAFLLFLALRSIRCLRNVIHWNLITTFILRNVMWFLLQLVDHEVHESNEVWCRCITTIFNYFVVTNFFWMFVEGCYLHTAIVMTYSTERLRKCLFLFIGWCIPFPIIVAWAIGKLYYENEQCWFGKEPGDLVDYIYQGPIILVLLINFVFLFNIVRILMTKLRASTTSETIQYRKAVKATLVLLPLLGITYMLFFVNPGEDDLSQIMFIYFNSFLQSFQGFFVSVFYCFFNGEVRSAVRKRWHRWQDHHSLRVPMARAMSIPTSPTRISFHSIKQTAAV
T1 sequence (P24387 whole entry): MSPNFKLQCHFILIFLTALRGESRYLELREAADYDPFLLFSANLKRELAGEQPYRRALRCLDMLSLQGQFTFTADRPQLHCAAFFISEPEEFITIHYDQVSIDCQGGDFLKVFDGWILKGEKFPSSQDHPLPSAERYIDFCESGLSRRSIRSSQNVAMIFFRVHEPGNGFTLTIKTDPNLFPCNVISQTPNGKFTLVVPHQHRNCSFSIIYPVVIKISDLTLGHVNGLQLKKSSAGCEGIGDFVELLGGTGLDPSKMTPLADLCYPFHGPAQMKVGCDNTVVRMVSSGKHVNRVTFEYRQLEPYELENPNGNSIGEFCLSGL
The assay is described as follows: Dose Response confirmation of uHTS hits for small molecule antagonists of the CRF-binding protein and CRF-R2 receptor complex. The settings on record: read-out: IC50_Mean. It is filed as functional.

Assay [2] addresses T1, Corticotropin-releasing factor receptor 2/Corticotropin-releasing factor-binding protein. The assay is described as follows: activators of CRF receptor 2 with binding protein – uHTS hits, confirmation (AID 602473). It is filed as functional. The settings on record: read-out: EC50_Mean.
Assay [3] in a line: CRF-BP/CRF-R2 complex antagonists, dose response, cell-based, uHTS hits, 384-well (AID 651639). Type of assay: functional, Homo sapiens. The conditions noted are these: read-out: IC50_Mean.
For assay [4], the target named is T2, Fatty acid synthase (Homo sapiens, UniProt P49327). The assay is described as follows: FAS thioesterase domain inhibitors, dose response, biochemical, endpoint fluorescence intensity, uHTS hits (AID 624327).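 Note: fluorescence from hydrolysis of an O-methyl fluorescein acyl ester substrate by the enzyme.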 It is filed as functional.
Assay [5] deals with T2, Fatty acid synthase. The assay is described as follows: FAS thioesterase domain inhibitors, dose response, biochemical, kinetic fluorescence intensity (AID 624326).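 Note: rate of fluorescence rise from hydrolysis of a fluorogenic O-methyl fluorescein ester substrate.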 It is filed as functional.
Assay [6] can be described thus: inhibitors of intracellular T. cruzi replication, confirmation, NIH3T3 host cells, beta-gal luminescence (AID 2044).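 Note: intracellular parasites grown in NIH/3T3 mouse fibroblasts as host cells; luminescent beta-galactosidase reporter signal from transgenic T. cruzi replicating inside host cells; inhibitors lower the luminescence signal.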 It is filed as functional, cell-based.
A short description of assay [7]: cytotoxicity toward NIH3T3 fibroblasts, dose response, counter-screen, cell-based, ATP luminescence, mouse fibroblasts (AID 2010).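 Note: cells exposed to compound for about 90 hours before reading.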 It is filed as functional.
The target of assay [8] is T3, DNA repair and recombination protein RAD54-like (Homo sapiens, UniProt Q92698).
T3 sequence (Q92698 whole entry): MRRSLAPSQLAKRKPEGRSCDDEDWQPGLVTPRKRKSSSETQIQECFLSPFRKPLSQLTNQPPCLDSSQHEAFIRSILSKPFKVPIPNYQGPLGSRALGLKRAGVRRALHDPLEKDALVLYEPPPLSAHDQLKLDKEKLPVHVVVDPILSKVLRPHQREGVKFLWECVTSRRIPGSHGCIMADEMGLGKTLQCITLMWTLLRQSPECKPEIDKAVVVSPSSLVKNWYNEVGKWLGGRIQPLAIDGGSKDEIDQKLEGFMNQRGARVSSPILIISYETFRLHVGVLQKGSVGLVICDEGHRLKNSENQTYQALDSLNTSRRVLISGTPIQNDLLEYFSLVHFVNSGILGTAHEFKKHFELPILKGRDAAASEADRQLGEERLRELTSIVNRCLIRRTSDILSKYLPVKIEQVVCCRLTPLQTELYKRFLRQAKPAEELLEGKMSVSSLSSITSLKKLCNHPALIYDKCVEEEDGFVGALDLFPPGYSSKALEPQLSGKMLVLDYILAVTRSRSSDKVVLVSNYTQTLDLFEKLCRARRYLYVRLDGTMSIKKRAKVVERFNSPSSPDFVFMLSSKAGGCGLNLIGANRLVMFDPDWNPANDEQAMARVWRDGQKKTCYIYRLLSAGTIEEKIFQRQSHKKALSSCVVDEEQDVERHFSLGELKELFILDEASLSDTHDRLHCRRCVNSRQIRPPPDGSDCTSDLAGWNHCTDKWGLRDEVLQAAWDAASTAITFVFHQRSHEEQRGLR
The assay is described as follows: inhibitors of human RAD54 branch migration, confirmation, biochemical, fluorescence, cherry-picked samples, dose series (AID 651657). Type of assay: functional.

Assay [9] is described as follows: cells.
Assay [10] has as its target T4, Sentrin-specific protease 8 (Homo sapiens, UniProt Q96LD8).
T4 sequence (Q96LD8 whole entry): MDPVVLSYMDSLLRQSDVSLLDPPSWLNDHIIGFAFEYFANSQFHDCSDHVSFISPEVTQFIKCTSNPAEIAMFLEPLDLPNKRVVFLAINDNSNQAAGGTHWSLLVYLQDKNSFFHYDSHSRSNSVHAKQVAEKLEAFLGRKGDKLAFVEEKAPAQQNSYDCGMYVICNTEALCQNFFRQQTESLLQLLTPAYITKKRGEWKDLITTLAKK
It is filed as functional.

The target in assay [11] is T4, Sentrin-specific protease 8. Type of assay: functional. The source holds these as a separate data set.
Assay [12] concerns the target T5, Rac GTPase-activating protein 1 (Homo sapiens, UniProt Q9H0H5).
T5 sequence (Q9H0H5 whole entry): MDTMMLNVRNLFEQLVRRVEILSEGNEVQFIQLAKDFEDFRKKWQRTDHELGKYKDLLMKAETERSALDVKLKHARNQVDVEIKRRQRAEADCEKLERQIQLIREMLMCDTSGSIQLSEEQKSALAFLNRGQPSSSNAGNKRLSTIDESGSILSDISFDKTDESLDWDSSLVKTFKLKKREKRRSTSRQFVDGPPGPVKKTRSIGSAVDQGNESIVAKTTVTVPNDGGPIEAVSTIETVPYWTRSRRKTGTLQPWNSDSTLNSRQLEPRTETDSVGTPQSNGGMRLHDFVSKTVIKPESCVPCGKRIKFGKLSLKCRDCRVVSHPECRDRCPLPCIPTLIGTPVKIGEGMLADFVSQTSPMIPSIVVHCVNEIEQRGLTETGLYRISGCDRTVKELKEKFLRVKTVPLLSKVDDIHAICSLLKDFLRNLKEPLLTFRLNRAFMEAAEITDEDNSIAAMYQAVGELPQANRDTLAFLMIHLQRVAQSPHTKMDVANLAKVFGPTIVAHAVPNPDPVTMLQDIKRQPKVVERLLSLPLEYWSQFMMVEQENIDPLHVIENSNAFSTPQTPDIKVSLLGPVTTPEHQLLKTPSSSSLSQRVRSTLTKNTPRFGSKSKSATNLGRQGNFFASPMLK
The assay is described as follows: MgcRacGAP GTPase-activating activity inhibitors, confirmation, biochemical, ADP Hunter fluorescence, primary and confirmatory (AID 624330). It is filed as functional.

A short description of assay [13]: growth suppression of PTEN-null colon cells, dose response, cell-based, HCT116 PTEN knockout (AID 1047).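 Note: HCT116 colon tumor cells with PTEN knocked out; cells exposed to compound for 60 hours before readout; potency for loss of cell viability measured by luminescence.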 It is filed as functional.
Assay [14] is described as follows: growth suppression of beta-catenin-knockout colon cells, dose response, cell-based, HCT116, human colon tumor (AID 1045).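 Note: HCT116 colon tumor cells with beta catenin knocked out; cells exposed to compound for 60 hours.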 It is filed as functional.
In assay [15] the target is T6, Ubiquitin-conjugating enzyme E2 N (Homo sapiens, UniProt P61088).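 Note: Dose-response confirmation in a TR-FRET assay detecting UBC13-driven polyubiquitin chain formation, inhibition measured.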
T6 sequence (P61088 whole entry): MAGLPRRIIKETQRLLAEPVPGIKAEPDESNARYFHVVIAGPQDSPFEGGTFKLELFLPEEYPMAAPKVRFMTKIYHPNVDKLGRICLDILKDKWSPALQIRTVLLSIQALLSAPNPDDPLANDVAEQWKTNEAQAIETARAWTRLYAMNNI
Type of assay: functional.

Assay [16] deals with Eukaryotic translation initiation factor 4E (Mus musculus, UniProt P63073). The assay is described as follows: eIF4E–eIF4G protein interaction inhibitors, dose response, biochemical, TR-FRET (AID 855).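 Note: potency for disrupting eIF4E binding to eIF4GI seen as loss of FRET.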 Type of assay: functional.
Assay [17] is described as follows: cytotoxicity in HEK-293T cells, dose response, cytotoxicity control for TCR NF-kB inhibitor project, luminescence, T-cell screen hits (AID 489026).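 Note: cells exposed to compound about 14 hours before the viability readout.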 It is filed as functional, cell-based.
Assay [18] addresses Heat shock protein HSP 90-alpha (Homo sapiens, UniProt P07900). It is filed as functional, organism-based.
The target in assay [19] is Melanocortin receptor 4 (Homo sapiens, UniProt P32245). Type of assay: functional, cell-based.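 Note: Cell-based assay with luminescence read-out, confirmatory dose-response testing for agonist activity of biased ligands at MC4R; human U2OS cells with tagged receptor and beta-arrestin; potency of agonists that increase receptor coupling to beta-arrestin.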
Assay [20] can be described thus: miR-122 activators in hepatoma reporter cells, dose response, cell-based, Huh7 psiCHECK-miR122, Renilla luciferase, cherry-picked (AID 651956).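 Note: huh7 hepatoma cells stably carrying a psiCHECK-2 miR-122 sensor plasmid; renilla luciferase signal reporting endogenous miR-122 activity after 48 h compound exposure.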 Type of assay: functional.
Assay [21] is described as follows: HEK293T cytotoxicity, dose response, cytotoxicity control for miR-122 modulator project, cell-based, inhibitor set, cherry-pick, set 2 (AID 720697). Type of assay: functional.

SMILES strings stand for the structures. The source made the active and inactive calls.

T2 sequence (P49327 whole entry, the tested form may be a part): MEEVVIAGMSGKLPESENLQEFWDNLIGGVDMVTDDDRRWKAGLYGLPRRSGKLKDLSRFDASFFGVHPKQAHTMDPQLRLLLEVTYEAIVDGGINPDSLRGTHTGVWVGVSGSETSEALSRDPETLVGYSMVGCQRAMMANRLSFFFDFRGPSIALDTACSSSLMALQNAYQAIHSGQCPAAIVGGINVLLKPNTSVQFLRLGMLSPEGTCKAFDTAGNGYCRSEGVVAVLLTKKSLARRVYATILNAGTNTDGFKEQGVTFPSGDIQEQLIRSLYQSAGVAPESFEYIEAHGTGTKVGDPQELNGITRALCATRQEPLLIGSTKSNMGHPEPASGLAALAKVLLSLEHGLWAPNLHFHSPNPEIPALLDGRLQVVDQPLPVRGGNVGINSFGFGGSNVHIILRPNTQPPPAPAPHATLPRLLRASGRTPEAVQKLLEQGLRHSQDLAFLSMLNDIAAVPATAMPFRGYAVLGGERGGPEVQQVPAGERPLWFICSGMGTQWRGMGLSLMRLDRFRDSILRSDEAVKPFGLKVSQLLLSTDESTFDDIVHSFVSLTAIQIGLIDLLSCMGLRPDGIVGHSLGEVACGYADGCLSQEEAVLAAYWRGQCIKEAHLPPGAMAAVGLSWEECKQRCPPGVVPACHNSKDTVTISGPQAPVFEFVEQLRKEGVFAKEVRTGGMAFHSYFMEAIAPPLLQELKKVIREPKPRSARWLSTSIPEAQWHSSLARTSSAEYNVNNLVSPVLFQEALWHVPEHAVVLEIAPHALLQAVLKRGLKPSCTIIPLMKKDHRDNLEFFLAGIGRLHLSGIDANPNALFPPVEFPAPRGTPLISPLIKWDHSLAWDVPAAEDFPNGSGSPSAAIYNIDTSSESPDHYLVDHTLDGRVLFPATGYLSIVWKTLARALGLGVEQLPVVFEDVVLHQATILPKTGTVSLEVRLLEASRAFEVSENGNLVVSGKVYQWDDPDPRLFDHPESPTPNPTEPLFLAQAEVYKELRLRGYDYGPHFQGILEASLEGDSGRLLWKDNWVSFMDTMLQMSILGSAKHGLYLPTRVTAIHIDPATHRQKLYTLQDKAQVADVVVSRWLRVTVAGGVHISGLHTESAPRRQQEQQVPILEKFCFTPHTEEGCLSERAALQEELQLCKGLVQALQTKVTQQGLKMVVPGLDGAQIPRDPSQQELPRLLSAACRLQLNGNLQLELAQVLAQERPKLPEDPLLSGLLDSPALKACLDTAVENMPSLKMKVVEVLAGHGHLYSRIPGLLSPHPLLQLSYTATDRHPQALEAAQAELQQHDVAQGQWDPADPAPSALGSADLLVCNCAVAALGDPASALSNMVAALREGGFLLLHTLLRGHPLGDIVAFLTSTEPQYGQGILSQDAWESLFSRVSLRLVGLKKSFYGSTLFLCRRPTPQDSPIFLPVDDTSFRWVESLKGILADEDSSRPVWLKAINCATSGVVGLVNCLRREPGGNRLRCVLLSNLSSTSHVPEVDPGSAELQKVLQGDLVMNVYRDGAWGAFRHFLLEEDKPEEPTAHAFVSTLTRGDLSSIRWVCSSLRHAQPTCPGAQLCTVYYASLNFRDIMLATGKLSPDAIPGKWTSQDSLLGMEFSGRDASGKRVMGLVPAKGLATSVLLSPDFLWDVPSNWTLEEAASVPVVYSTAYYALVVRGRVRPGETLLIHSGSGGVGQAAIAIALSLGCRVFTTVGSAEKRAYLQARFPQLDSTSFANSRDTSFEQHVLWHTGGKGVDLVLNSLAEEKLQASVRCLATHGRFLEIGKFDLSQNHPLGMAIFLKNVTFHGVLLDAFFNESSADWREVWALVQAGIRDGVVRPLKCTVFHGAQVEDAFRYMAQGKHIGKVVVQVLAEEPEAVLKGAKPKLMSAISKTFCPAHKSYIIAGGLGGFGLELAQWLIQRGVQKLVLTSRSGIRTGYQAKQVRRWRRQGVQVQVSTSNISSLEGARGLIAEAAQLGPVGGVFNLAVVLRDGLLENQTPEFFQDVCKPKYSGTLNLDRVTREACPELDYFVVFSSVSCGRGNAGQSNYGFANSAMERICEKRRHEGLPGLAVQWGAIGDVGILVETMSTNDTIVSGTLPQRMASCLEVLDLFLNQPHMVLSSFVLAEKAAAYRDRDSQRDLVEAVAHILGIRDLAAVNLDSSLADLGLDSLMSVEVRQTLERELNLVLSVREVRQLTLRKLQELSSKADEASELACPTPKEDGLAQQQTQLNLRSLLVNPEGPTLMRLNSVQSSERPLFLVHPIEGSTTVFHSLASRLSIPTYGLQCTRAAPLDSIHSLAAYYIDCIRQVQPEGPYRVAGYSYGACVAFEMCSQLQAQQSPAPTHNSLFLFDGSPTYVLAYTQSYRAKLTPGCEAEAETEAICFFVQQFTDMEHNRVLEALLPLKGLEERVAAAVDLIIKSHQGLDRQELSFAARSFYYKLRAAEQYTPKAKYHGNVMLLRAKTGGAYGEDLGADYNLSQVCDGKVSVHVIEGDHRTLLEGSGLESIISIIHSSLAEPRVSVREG
Eukaryotic translation initiation factor 4E, sequence (P63073 whole entry): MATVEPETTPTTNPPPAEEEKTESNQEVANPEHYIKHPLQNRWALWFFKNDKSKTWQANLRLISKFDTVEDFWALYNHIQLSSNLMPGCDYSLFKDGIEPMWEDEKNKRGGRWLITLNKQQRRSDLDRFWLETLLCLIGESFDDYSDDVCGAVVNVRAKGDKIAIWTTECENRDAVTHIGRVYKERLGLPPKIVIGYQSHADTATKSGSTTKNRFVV
Melanocortin receptor 4, sequence (P32245 whole entry): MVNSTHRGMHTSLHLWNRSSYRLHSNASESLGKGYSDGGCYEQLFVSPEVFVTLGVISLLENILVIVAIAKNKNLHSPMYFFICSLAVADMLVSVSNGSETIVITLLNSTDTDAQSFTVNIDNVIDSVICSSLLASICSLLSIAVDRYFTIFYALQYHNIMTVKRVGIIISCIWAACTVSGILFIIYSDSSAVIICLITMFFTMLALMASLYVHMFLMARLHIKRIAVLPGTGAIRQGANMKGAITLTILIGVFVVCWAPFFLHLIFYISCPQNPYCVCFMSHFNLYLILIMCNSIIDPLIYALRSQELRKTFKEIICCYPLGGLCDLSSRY

As for `COc1ccc([N+](=O)[O-])cc1N(CC(O)Cn1nnc2ccccc21)S(=O)(=O)c1ccc(C)cc1` (stereo not given), the IC50 in [1] was 4.39 µM (active); in assay [3], 8.96 µM (active); in assay [4] it was 10.8 µM (active); in [5] it was 8.07 µM (active). Moreover, the EC50 in assay [2] is > 53 µM (inactive).
As for `COc1ccc(C(=O)O/N=C(\N)Cc2ccc(Cl)c(Cl)c2)cc1OC`, the IC50 in assay [3] was 5.1 µM (active).
Consider `CN(C)CCN(C(=O)CN1C(=O)c2ccccc2C1=O)c1nc2cc3c(cc2s1)OCCO3`, for which the EC50 in assay [6] was < 0.1 µM (active); in assay [7], > 60 µM (not active); in [9], 0.163 µM (active). For the same molecule, in assay [8], the AC50 was 57.6 µM (active).
In the case of `Cc1ccc(-n2nnnc2SCc2nnc(-c3ccccc3Br)o2)c(C)c1`, the IC50 in assay [1] was 2.72 µM (active); in assay [3], 10.7 µM (active). Also, the EC50 in assay [2] is > 53 µM (inactive).
For the molecule `COc1ccc(NCc2ccc([N+](=O)[O-])s2)c(OC)c1`, the IC50 in assay [10] is 13.5 µM (active); in assay [11], 11.6 µM (active); in [12], 34.4 µM (active).
Regarding `CCCCCCCCCCCCCCCC[n+]1ccc(C=NO)cc1`, the EC50 is 1.26 µM (active) in [13], 0.884 µM (active) in [14] and > 3.3 µM (active) in assay [19]. In addition, the IC50 in assay [15] was > 20 µM (inactive); in assay [16], 12.7 µM (active); in assay [17], 67.7 µM (inactive). Moreover, in [18], the AC50 is 3.1 µM (active).
`CN(C)CCN(C(=O)c1ccco1)c1nc2cc3c(cc2s1)OCCO3`: the AC50 in [8] is 30.6 µM (active).
For `O=C1SCCN1N=Cc1ccc([N+](=O)[O-])o1`, the IC50 in assay [10] was > 100 µM (inactive); in [11], 61 µM (inactive).
With `COCC(=O)N(C)C[C@H]1Oc2cc(-c3ccccc3F)ccc2S(=O)(=O)N([C@@H](C)CO)C[C@H]1C`, the AC50 in assay [20] is 3.15 µM (active); in assay [21] it was 8.35 µM (active).
On to `COc1ccccc1C#Cc1ccc2c(c1)O[C@H](CN(C)Cc1cccnc1)[C@@H](C)CN([C@@H](C)CO)S2(=O)=O`, for which the AC50 in assay [20] was 25.6 µM (active); in assay [21], 0.944 µM (active).
